ChEMBL document CHEMBL1201862, “PubChem BioAssay data set” (2004)
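Briefly, cells in 96-well plates were exposed to five compound concentrations for 48 h, and endpoints were estimated by linear interpolation. Here, GI50 denotes the concentration required for 50% inhibition of growth.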 Activity calls are given as the source filed them. Rule as the data show it: active = GI50 up to about 1.1 µM and inactive = higher.

Columns and labels:
Assay in all cases: NCI anticancer screen, dose series, 48 h
[1] = system: HOP-62
[2] = system: DU-145
[3] = system: K562
[4] = system: Malme-3M
[5] = system: SK-MEL-28
[6] = system: NCI-H226
[7] = system: MDA-N
[8] = system: RXF 393
[9] = system: LOX IMVI
[10] = system: EKVX
[11] = system: RPMI-8226
[12] = system: Hs-578T
[13] = system: HL-60
[14] = system: M14
[15] = system: SW-620
[16] = system: NCI-H460
[17] = system: UACC-257
[18] = system: COLO 205
[19] = system: MDA-MB-231

Compound | GI50 [1] | GI50 [2] | GI50 [3] | GI50 [4] | GI50 [5] | GI50 [6] | GI50 [7] | GI50 [8] | GI50 [9] | GI50 [10] | GI50 [11] | GI50 [12] | GI50 [13] | GI50 [14] | GI50 [15] | GI50 [16] | GI50 [17] | GI50 [18] | GI50 [19]
C[C@H](CCC(=O)O)[C@H]1CC[C@H]2[C@@H]3C(=O)C[C@@H]4C[C@H](O)CC[C@]4(C)[C@H]3C[C@H](O)[C@]12C | > 100 µM (inactive) | > 100 µM (inactive) | > 100 µM (inactive) | > 100 µM (inactive) | > 100 µM (inactive) | > 100 µM (inactive) | > 100 µM (inactive) | > 100 µM (inactive) | > 100 µM (inactive) | > 100 µM (inactive) | > 100 µM (inactive) | < 0.01 µM (active) | > 100 µM (inactive) | > 100 µM (inactive) | > 100 µM (inactive) | > 100 µM (inactive) | > 100 µM (inactive) | > 100 µM (inactive) | > 100 µM (inactive)
COC(=O)/C(=C\c1cn(C(C)=O)c2ccccc12)P(=O)(OC)OC | 14.9 µM (inactive) | 13.4 µM (inactive) | 25.1 µM (inactive) | 16.7 µM (inactive) | 24.1 µM (inactive) | 38.4 µM (inactive) | 15.1 µM (inactive) | 16.7 µM (inactive) | 5.55 µM (inactive) | 17 µM (inactive) | 17.1 µM (inactive) | 27 µM (inactive) | 78.5 µM (inactive) | 15.2 µM (inactive) | 18.5 µM (inactive) | 15 µM (inactive) |  | 16.8 µM (inactive) | 11.7 µM (inactive)
S=C1NC(c2ccccc2)NC(c2ccccc2)S1 (stereo not given) | 74.8 µM (inactive) | > 100 µM (inactive) | 42.2 µM (inactive) | > 100 µM (inactive) | > 100 µM (inactive) | > 100 µM (inactive) | > 100 µM (inactive) | > 100 µM (inactive) | 78.9 µM (inactive) | > 100 µM (inactive) | > 100 µM (inactive) | > 100 µM (inactive) | > 100 µM (inactive) | > 100 µM (inactive) | > 100 µM (inactive) | 21.4 µM (inactive) | 34.6 µM (inactive) | > 100 µM (inactive) | > 100 µM (inactive)
CC(=O)O[C@H]1C(=O)[C@@]2(C)[C@H]([C@H](OC(=O)C3CCCCC3)[C@]3(O)C[C@H](OC(=O)[C@H](O)[C@@H](NC(=O)OC(C)(C)C)c4ccccc4)C(C)=C1C3(C)C)[C@]1(OC(C)=O)CO[C@@H]1C[C@@H]2O | 0.0181 µM (active) | 0.0867 µM (active) | 0.00275 µM (active) | 0.177 µM (active) |  | 0.0236 µM (active) | 0.00169 µM (active) | 0.0331 µM (active) | 0.00817 µM (active) | > 12.5 µM (inactive) | 0.00457 µM (active) | 0.00548 µM (active) | 0.00125 µM (active) | 0.00724 µM (active) | 0.00634 µM (active) | 0.00762 µM (active) | 0.0252 µM (active) | 0.013 µM (active) | 0.0427 µM (active)
CC(=O)OC1c2ccccc2CC2(OC(C)=O)c3ccccc3C12 (stereo not given) | > 100 µM (inactive) | > 100 µM (inactive) | > 100 µM (inactive) | > 100 µM (inactive) | > 100 µM (inactive) | > 100 µM (inactive) | > 100 µM (inactive) | > 100 µM (inactive) | > 100 µM (inactive) | > 100 µM (inactive) | > 100 µM (inactive) | > 100 µM (inactive) | > 10 µM (inactive) | > 100 µM (inactive) | > 100 µM (inactive) | > 100 µM (inactive) | > 100 µM (inactive) | > 100 µM (inactive) | > 100 µM (inactive)
O=C1c2c(F)c(F)c(F)c(F)c2SC2=Nc3cccc4cccc(c34)N12 | 13.7 µM (inactive) | 12.2 µM (inactive) | 2.02 µM (inactive) | 3.48 µM (inactive) | 4.27 µM (inactive) | 11.4 µM (inactive) | 5.05 µM (inactive) | 4.1 µM (inactive) | 2.77 µM (inactive) | 9.79 µM (inactive) | 2.62 µM (inactive) | 2.86 µM (inactive) | 2.07 µM (inactive) | 2.92 µM (inactive) | 3.29 µM (inactive) | 10 µM (inactive) | 5.19 µM (inactive) | 9.35 µM (inactive) | 3.24 µM (inactive)
COc1c2c3c4c(c(OC)c(=O)c5c(O)cc(OC)c(c6c(OC)cc(O)c(c1=O)c63)c54)C(C(C)O)C2C(C)=O (stereo not given) | 0.177 µM (active) | 0.641 µM (active) | 0.234 µM (active) | 0.448 µM (active) | 0.189 µM (active) | 0.528 µM (active) | 0.282 µM (active) | 0.06 µM (active) | 0.244 µM (active) | 0.482 µM (active) | 0.513 µM (active) | 0.593 µM (active) | 0.334 µM (active) | 0.288 µM (active) | 0.395 µM (active) | 0.226 µM (active) | 0.521 µM (active) | 0.571 µM (active) | 0.741 µM (active)
COCCOC(=O)C(C)=[N+]=[N-] | > 100 µM (inactive) | > 100 µM (inactive) | > 100 µM (inactive) | > 100 µM (inactive) | > 100 µM (inactive) | > 100 µM (inactive) | > 100 µM (inactive) | > 100 µM (inactive) | > 100 µM (inactive) | > 100 µM (inactive) | > 100 µM (inactive) | > 100 µM (inactive) |  |  | > 100 µM (inactive) | > 100 µM (inactive) | > 100 µM (inactive) | > 100 µM (inactive) | > 100 µM (inactive)
Cc1cccc(-c2cc(O)c3ccc(C)nc3n2)c1 | 0.546 µM (active) | 0.598 µM (active) | 0.0993 µM (active) | 0.296 µM (active) | 2.75 µM (inactive) | 0.367 µM (active) | 0.0283 µM (active) | 0.456 µM (active) | 0.556 µM (active) |  | 0.43 µM (active) | 0.337 µM (active) | 0.0902 µM (active) | 0.226 µM (active) | 0.101 µM (active) | 0.334 µM (active) |  | 0.14 µM (active) | 0.409 µM (active)
C[C@]12CC/C(=N\OCCN3CCCC3)C=C1CCC1C2CC[C@@]2(C)C1CC[C@]2(C)O (stereo not given in full) | 13.1 µM (inactive) | 11.3 µM (inactive) | 2.4 µM (inactive) | 5.21 µM (inactive) |  | 2.9 µM (inactive) | 2.56 µM (inactive) | 19.3 µM (inactive) | 4.33 µM (inactive) | 6.93 µM (inactive) | 2.83 µM (inactive) | 13.8 µM (inactive) |  | 13.9 µM (inactive) |  | 3.97 µM (inactive) | 5.6 µM (inactive) | 3.4 µM (inactive) | 16.6 µM (inactive)
COC(=O)C(Cc1ccccc1)NS(=O)(=O)c1ccc(-c2c3nc(c(-c4ccc(S(=O)(=O)NC(Cc5ccccc5)C(=O)OC)cc4)c4ccc([nH]4)c(-c4ccc(S(=O)(=O)NC(Cc5ccccc5)C(=O)OC)cc4)c4nc(c(-c5ccc(S(=O)(=O)NC(Cc6ccccc6)C(=O)OC)cc5)c5ccc2[nH]5)C=C4)C=C3)cc1 (stereo not given) | 60.8 µM (inactive) | > 100 µM (inactive) | > 100 µM (inactive) | > 100 µM (inactive) | > 100 µM (inactive) |  | > 100 µM (inactive) | 39.4 µM (inactive) | > 100 µM (inactive) | > 100 µM (inactive) | > 100 µM (inactive) | 17.1 µM (inactive) | > 100 µM (inactive) | > 100 µM (inactive) | > 100 µM (inactive) | 85.5 µM (inactive) | > 100 µM (inactive) | > 100 µM (inactive) | > 100 µM (inactive)
Cc1cc(S(=O)(=O)Nc2nnc3cnc4ccccc4n23)c(S)cc1Cl | 79.4 µM (inactive) | > 100 µM (inactive) | > 100 µM (inactive) | > 100 µM (inactive) |  | > 94.6 µM (inactive) | > 100 µM (inactive) | > 100 µM (inactive) | > 100 µM (inactive) |  | > 100 µM (inactive) | 57.8 µM (inactive) | > 100 µM (inactive) | > 100 µM (inactive) | > 100 µM (inactive) | 51.5 µM (inactive) | > 100 µM (inactive) | > 100 µM (inactive) | > 100 µM (inactive)
Cn1c2c(c3ccccc31)CCN1C(=O)C34CCCC3CC21S4 (stereo not given) | > 100 µM (inactive) | > 100 µM (inactive) | > 100 µM (inactive) | > 100 µM (inactive) | > 100 µM (inactive) | > 100 µM (inactive) | > 100 µM (inactive) | > 100 µM (inactive) | > 100 µM (inactive) | > 100 µM (inactive) | > 100 µM (inactive) | > 100 µM (inactive) | > 100 µM (inactive) | > 100 µM (inactive) | > 100 µM (inactive) |  | > 100 µM (inactive) | > 100 µM (inactive) | > 100 µM (inactive)
C[C@]12CC[C@@H]3c4cc(C=O)c(OCc5ccccc5)cc4CC[C@H]3[C@@H]1CCC2OCc1ccccc1 (stereo not given in full) | > 100 µM (inactive) | > 100 µM (inactive) | > 100 µM (inactive) |  | > 100 µM (inactive) | 32.8 µM (inactive) | > 100 µM (inactive) | > 100 µM (inactive) | > 100 µM (inactive) | > 100 µM (inactive) | > 100 µM (inactive) | > 100 µM (inactive) | > 100 µM (inactive) | > 100 µM (inactive) | > 100 µM (inactive) | > 100 µM (inactive) | 58.9 µM (inactive) | > 100 µM (inactive) | > 100 µM (inactive)
CCSC1SC(c2ccccc2)(c2ccccc2)c2ccccc21 (stereo not given) | > 100 µM (inactive) | 64.7 µM (inactive) | 62.4 µM (inactive) | 34.1 µM (inactive) | 79.8 µM (inactive) | 31.6 µM (inactive) | 35.9 µM (inactive) | 19.5 µM (inactive) | 45.1 µM (inactive) | 51.3 µM (inactive) | 32.8 µM (inactive) | 54.3 µM (inactive) |  | 31.2 µM (inactive) | 54.8 µM (inactive) | 36.9 µM (inactive) | 26.4 µM (inactive) | 35 µM (inactive) | 73.1 µM (inactive)
